Data on three compounds can be found in ChEMBL document CHEMBL1142609, “An apigenin-derived xanthine oxidase inhibitor from Palhinhaea cernua” (J Nat Prod, 2006).

Test [1] has as its target T1, Xanthine dehydrogenase/oxidase (Homo sapiens, UniProt P47989). The experiment in a line: Inhibition of xanthine oxidase by competitive Lineweaver-Burke plot.
Test [2] addresses T1, Xanthine dehydrogenase/oxidase. The experiment in a line: Inhibition of xanthine oxidase by noncompetitive Lineweaver-Burke plot. Conditions: read-out: Kinact.
Test [3] shares this target. The experiment in a line: Inhibition of xanthine oxidase.

T1 sequence (P47989 whole entry): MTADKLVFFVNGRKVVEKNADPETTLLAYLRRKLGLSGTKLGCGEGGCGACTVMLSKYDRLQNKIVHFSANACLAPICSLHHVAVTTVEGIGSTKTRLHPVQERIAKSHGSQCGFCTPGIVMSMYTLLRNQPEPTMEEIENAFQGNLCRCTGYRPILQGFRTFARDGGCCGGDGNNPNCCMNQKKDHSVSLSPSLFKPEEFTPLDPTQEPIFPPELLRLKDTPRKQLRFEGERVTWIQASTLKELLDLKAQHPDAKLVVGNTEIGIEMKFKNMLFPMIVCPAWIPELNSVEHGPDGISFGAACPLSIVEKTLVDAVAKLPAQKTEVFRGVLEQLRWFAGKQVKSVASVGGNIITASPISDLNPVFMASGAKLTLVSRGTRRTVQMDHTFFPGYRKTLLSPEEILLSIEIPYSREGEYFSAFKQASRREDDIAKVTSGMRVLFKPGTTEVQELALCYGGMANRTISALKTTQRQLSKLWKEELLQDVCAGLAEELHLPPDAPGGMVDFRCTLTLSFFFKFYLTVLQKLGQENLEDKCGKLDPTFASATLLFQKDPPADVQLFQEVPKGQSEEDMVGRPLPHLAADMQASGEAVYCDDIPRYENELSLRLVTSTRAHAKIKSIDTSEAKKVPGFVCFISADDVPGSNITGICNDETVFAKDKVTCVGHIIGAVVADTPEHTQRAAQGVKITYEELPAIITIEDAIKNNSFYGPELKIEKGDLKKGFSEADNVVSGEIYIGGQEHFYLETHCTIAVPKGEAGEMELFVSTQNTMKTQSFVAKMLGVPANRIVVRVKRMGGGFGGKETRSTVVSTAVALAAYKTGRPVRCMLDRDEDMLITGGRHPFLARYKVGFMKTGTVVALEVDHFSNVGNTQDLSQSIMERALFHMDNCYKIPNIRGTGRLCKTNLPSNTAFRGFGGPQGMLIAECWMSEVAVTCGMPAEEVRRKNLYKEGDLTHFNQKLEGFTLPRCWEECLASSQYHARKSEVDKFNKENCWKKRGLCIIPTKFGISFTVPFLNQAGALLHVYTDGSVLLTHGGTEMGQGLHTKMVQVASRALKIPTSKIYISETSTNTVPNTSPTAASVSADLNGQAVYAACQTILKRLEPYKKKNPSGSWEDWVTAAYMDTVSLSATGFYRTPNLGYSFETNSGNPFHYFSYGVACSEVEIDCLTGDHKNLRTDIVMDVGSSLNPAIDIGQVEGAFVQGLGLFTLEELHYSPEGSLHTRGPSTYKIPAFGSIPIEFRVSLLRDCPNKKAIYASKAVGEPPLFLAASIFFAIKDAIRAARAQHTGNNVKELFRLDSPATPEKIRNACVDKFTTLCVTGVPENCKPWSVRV

Consider `O=C(/C=C/c1ccc(O)cc1)O[C@@H]1[C@@H](Oc2ccc(-c3cc(=O)c4c(O)cc(O)cc4o3)cc2)O[C@@H](CO)[C@H](O)[C@H]1O`, for which the Ki in test [1] turned out to be 14.3 µM; in test [2], 93.7 µM. For the same compound, the half-inhibitory concentration (IC50) (commonly the concentration that gives 50% inhibition) in test [3] is 24 µM.

`O=C(/C=C/c1ccc(O)cc1)OC[C@@H]1O[C@H](Oc2ccc(-c3cc(=O)c4c(O)cc(O)cc4o3)cc2)[C@@H](OC(=O)/C=C/c2ccc(O)cc2)[C@H](O)[C@H]1O` had an IC50 in test [3] greater than 100 µM.

For the compound `O=C(/C=C/c1ccc(O)cc1)OC[C@@H]1O[C@H](Oc2ccc(-c3cc(=O)c4c(O)cc(O)cc4o3)cc2)[C@@H](O)[C@H](O)[C@H]1O`, the IC50 in test [3] is greater than 100 µM.
